How the values were obtained:
Type in all cases: cell-based
[1] = tested on: NCI-H460 large lung cancer cells; experiment: Cancer cell growth inhibition assay, trypan blue exclusion (Ca-Pam particles); settings: Homo sapiens, 48 h, pamidronate concentrations
Description: NCI-H460 large lung cancer cells (American Type Culture Collection (ATCC)# HTB-177) were purchased from the Tissue Culture Facility of Lineberger Comprehensive Cancer Center at the University of North Carolina at Chapel Hill. The cell line was maintained as a suspension in RPMI-1640 growth medium (Cellgro®, Mediatech, Inc., Manassas, Virginia., United States of America) supplemented with 10% fetal bovine serum (Sigma, St. Louis, Missouri., United States of America) and 2% penicillin-streptomycin (Sigma, St. Louis, Missouri., United States of America).
Confluent H460 cells were counted from the culture flask using a hematocytometer. Cells were plated in 6-well plates at a cell density of 5×10^4 cells/well in 3 mL RPMI-1640 complete growth medium. The cells were incubated at 37° C. and 5% CO2 overnight. Pamidronate, and particle dispersions of Ca-Pam, lipid coated Ca-Pam, and AA-lipid coated Ca-Pam (80 μM) in RPMI-1640 media and additional media were added to wells, resulting in pamidronate concentrations (μM) of 0, 5, 10, 20, 40, and 80. Cells were incubated (37° C., 5% CO2) with free pamidronate or particle for 48 h. Viability was determined by the trypan blue exclusion assay.

[2] = tested on: H460 human lung carcinoma cells; experiment: Cell viability assay, trypan blue cell counts (A-Ca-Zol particles); settings: NCI-H460, 48 hrs
Procedure: Four cell culturing plates were set-up for cell viability assays. In each well, 100,000 H460 human lung carcinoma cells were placed in each well with 3 mL of RPMI media (supplemented with 10% FBS and 2% PenStrep) and were allowed to incubate overnight for cell adhesion at 37° C. at 5% CO2.
20 μM stock solutions of zolendrate, bare particle (i.e., as synthesized A-Ca-Zol), RGD targeted particle and anisamide targeted particle were prepared so that treatment curves of 0 μM, 1 μM, 5 μM, 10 μM, 20 μM and […] were established in RPMI media. After individual treatment, the plates were placed back in the incubator for 48 hrs.
After incubation, media and treatment was removed from each well and cells were washed 2× with 1 mL of PBS. 1 mL of trypsin was added to each well and placed back in the incubator for 3 min. The cells and trypsin were then transferred to centrifuge tubes and centrifuged for 3 min and the cell pellet was then redistributed in 1 mL of media. Cell counts were taken using 20 μL of cells and 20 μL trypan blue on a hemocytometer.

[3] = tested on: ASPC-1; experiment: Cytotoxicity assay against ASPC-1 (FIG. 35A); settings: Homo sapiens, ASPC1
Description: (§1) FIGS. 35A and 35B present data from cytotoxicity assays of Mn-Zol@DOPA, PEG-A-Zn-Zol, and AA-PEG-A-Mn-Zol particles against ASPC-1 (FIG. 35A) and MCF-7 cells (FIG. 35B).

[4] = tested on: MCF-7 cells; experiment: Cytotoxicity assay against MCF-7 cells (FIG. 35B); settings: Homo sapiens, MCF7
Description: as §1

[5] = tested on: NCI-H460 large lung cancer cells; experiment: Cell viability, trypan blue exclusion (Mn-Zol particles); settings: Homo sapiens, 48 h, zoledronate concentrations
Description: (§2) NCI-H460 large lung cancer cells (ATCC # HTB-177) and MCF-7 human breast cancer cells (ATCC # HTB-22) were purchased from the Tissue Culture Facility of Lineberger Comprehensive Cancer Center at the University of North Carolina at Chapel Hill. The cell line was maintained as a suspension in RPMI-1640 growth medium (Cellgro®, Mediatech, Inc., Manassas, Virginia., United States of America) supplemented with 10% fetal bovine serum (Sigma, St. Louis, Missouri., United States of America) and 2% penicillin-streptomycin (Sigma, St. Louis, Missouri, United States of America).
Confluent H460 cells were counted from the culture flask using a hematocytometer. Cells were plated in 6-well plates at a cell density of 5×10^4 cells/well in 3 mL RPMI-1640 complete growth medium. The cells were incubated at 37° C. and 5% CO2 overnight. Zoledronate, bare liposome, and particle dispersions of Mn-Zol and lipid coated Mn-Zol (20 μM) in RPMI-1640 media and additional media were added to wells, resulting in zoledronate concentrations (μM) of 0, 1.0, 2.5, 5, 10, and 20. Cells were incubated (37° C., 5% CO2) with free zoledronate, liposome, or particle for 48 h. Viability was determined by the trypan blue exclusion assay.

[6] = tested on: MCF-7 human breast cancer cells; experiment: Cell viability, trypan blue exclusion (A-Mn-Zol particles); settings: MCF7, MCF-7 cells, 48 h, zoledronate concentrations
Description: as §2
Confluent MCF-7 cells were trypsinized (trypsin-EDTA, Sigma, St. Louis, Missouri, United States of America) and cell density was obtained from a hemocytometer. 6-well plates were seeded with 5.0×10^4 cells/well and a total of 3 mL media. The plates were incubated at 37° C. and 5% CO2 overnight. Amounts of zoledronate, liposomes, and particle dispersions in RPMI-1640 medium and additional media (5% phosphate buffered saline, Cellgro®, Mediatech, Inc., Manassas, Virginia., United States of America) were added to wells resulting in zoledronate concentrations of 0, 2.5, 5, 10, 20, and 40 μM. The plates were incubated at 37° C. and 5% CO2 for 48 h and viability was determined via the trypan blue exclusion assay. […]

[7] = tested on: human PC-3 prostate adenocarcinoma cells; experiment: Cell viability assay in PC-3 cells (A-Ca-Zol particles)
Procedure: In addition, a cell viability assay was also performed in a similar manner, but using human PC-3 prostate adenocarcinoma cells. Cell viability results for PC-3 cells treated with either zoledronate or as synthesized A-Ca-Zol nanoparticles are provided in FIG. 24. The IC50's are estimated to be 3.1, and 0.8 for zoledronate and as-synthesized A-Ca-Zol, respectively.

| SMILES | IC50 [1] | IC50 [2] | IC50 [3] | IC50 [4] | IC50 [5] | IC50 [6] | IC50 [7] |
| --- | --- | --- | --- | --- | --- | --- | --- |
| NCCC(O)(P(=O)(O)O)P(=O)(O)O [pamidronate] | 65 µM |  |  |  |  |  |  |
| O=P(O)(O)C(O)(Cn1ccnc1)P(=O)(O)O [zoledronate] |  | > 20 µM | > 60 µM | > 60 µM | > 20 µM | 9 µM | 3.1 µM |

— patent US11872311B2, “Metal bisphosphonate nanoparticles for anti-cancer therapy and imaging and for treating bone disorders” (The University of North Carolina at Chapel Hill, priority 2011, dated 2024)
